From ChEMBL document CHEMBL3879893, “Nuclear transport modulators and uses thereof” (2011)
The source made the active and inactive calls. The calls are words filed in the database; no cut-off is given here.

molecular target: T1, Exportin-1 (Homo sapiens, UniProt O14980); experiment: Inhibition of Crm1 in human U2OS cells expressing GFP-fused HIV1 Rev assessed as decrease in nuclear export of GFP-fused HIV1 Rev after 1 hr by Hoechst 33258 staining-based assay; format: cell-based; conditions: not given
T1 sequence (O14980 whole entry, the tested form may be a part): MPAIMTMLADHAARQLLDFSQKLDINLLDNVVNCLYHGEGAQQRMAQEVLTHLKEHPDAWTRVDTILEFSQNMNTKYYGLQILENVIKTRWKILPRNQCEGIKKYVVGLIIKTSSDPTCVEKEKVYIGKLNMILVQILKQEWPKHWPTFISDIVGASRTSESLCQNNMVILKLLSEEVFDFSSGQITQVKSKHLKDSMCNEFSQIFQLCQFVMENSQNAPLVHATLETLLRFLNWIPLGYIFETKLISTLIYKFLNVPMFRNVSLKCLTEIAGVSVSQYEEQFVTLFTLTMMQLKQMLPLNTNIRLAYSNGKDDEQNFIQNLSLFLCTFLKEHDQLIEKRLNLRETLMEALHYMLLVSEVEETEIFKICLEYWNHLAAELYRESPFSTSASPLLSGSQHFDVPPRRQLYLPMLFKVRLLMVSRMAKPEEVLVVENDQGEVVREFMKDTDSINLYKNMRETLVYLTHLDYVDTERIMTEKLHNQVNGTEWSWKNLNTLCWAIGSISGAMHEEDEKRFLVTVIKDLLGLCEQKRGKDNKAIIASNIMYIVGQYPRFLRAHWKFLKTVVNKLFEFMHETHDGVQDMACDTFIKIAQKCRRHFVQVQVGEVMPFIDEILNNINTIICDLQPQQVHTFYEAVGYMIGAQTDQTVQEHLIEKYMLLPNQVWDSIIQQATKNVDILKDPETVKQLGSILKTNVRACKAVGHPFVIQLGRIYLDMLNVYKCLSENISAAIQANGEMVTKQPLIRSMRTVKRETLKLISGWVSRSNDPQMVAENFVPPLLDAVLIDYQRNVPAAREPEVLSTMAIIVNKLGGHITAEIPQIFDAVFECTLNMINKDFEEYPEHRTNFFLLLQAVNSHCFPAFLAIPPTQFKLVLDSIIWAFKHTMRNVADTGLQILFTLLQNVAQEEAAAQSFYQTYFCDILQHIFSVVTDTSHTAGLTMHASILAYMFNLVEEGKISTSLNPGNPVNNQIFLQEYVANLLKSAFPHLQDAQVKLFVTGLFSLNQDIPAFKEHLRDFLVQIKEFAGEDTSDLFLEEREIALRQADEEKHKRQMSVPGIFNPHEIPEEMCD

| IC50 [nM] | Structure (SMILES) |
| --- | --- |
| 1000 to 10000 | CC(C)OC(=O)/C=C/n1cnc(-c2cc(OCCN(C)C)cc(C(F)(F)F)c2)n1 |
| ≤ 1000 | CC(C)OC(=O)/C=C\n1cnc(-c2cc(OC(C)C)cc(C(F)(F)F)c2)n1 |
| ≥ 10000 | CC(C)OC(=O)/C=C/n1cnc(-c2cc(OCCN3CCCC3)cc(C(F)(F)F)c2)n1 |
| 1000 to 10000 | CC(C)OC(=O)/C=C\c1n[nH]c(-c2cc(Cl)cc(Cl)c2)n1 |
| ≤ 1000 | CCOC(=O)/C=C\n1cnc(-c2cccc(Cl)c2)n1 |
| 1000 to 10000 | CC(C)OC(=O)/C=C\n1cnc(-c2ccc(Oc3ccc(Cl)cc3)cc2)n1 |
| ≤ 1000 | O=C(/C=C\n1cnc(-c2cc(Cl)nc(Cl)c2)n1)OC1CNC1 |
| ≤ 1000 | CC(C)Nc1cc(-c2ncn(/C=C\C(=O)OC(C)C)n2)cc(C(F)(F)F)n1 |
| 1000 to 10000 | O=C(/C=C/n1cnc(-c2cccc(Cl)c2)n1)OC1CNC1 |
| ≤ 1000 | O=C(/C=C\n1cnc(-c2cccc(Cl)c2)n1)OC1COC1 |
| ≤ 1000 | CNc1cc(Cl)cc(-c2ncn(/C=C\C(=O)OC(C)C)n2)c1 |
| ≤ 1000 | CC(C)Oc1cc(-c2ncn(/C=C\C(=O)OCc3ccccn3)n2)cc(C(F)(F)F)c1 |
| ≤ 1000 | COc1cc(Cl)cc(-c2ncn(/C=C\C(=O)OC(C)C)n2)c1 |
| ≤ 1000 | Cc1cccc(-c2ncn(/C=C\C(=O)OC(C)C)n2)c1 |
| ≥ 10000 | Nc1ccc(NC(=O)/C=C/n2cnc(-c3cccc(Cl)c3)n2)cc1 |
| ≤ 1000 | CCOC(=O)/C=C\n1cnc(-c2cc(Cl)cc(OC)c2)n1 |
| ≤ 1000 | COCCOc1cc(Cl)cc(-c2ncn(/C=C\C(=O)OC(C)C)n2)c1 |
| ≥ 10000 | COc1ccc(NC(=O)/C=C/n2cnc(-c3cccc(Cl)c3)n2)cc1 |
| ≥ 10000 | O=C(/C=C\n1cnc(-c2cccc(Cl)c2)n1)NC1CCCC1 |
| ≤ 1000 | CC(C)OC(=O)/C=C\n1cnc(-c2cncc(Cl)c2)n1 |
| 1000 to 10000 | O=C(/C=C\n1cnc(-c2cccc(Cl)c2)n1)OC1COC(=O)C1 (stereo unspecified) |
| ≤ 1000 | CC(C)OC(=O)/C=C\n1cnc(-c2cccc(C(F)(F)F)c2)n1 |
| ≤ 1000 | CC(C)OC(=O)/C=C\n1cnc(-c2cc(NC3CCC3)nc(C(F)(F)F)c2)n1 |
| ≤ 1000 | O=C(/C=C\n1cnc(-c2cccc(Cl)c2)n1)N1CCC1 |

| IC50 [nM] | Structure (SMILES) |
| --- | --- |
| ≤ 1000 | COC(=O)/C=C\n1cnc(-c2cc(Cl)cc(OC)c2)n1 |
| ≤ 1000 | CC(C)OC(=O)/C=C\n1cnc(-c2cc(OC(C)C)nc(C(F)(F)F)c2)n1 |
| ≤ 1000 | CC(C)OC(=O)/C=C\n1cnc(-c2cc(Cl)cc(OC(F)(F)F)c2)n1 |
| ≤ 1000 | CC(C)OC(=O)/C=C\n1cnc(-c2cc(Cl)nc(OC(C)C)c2)n1 |
| ≤ 1000 | CC(C)OC(=O)/C=C\n1cnc(-c2ccc(Cl)c(Cl)c2)n1 |
| 1000 to 10000 | FC(F)(F)/C=C\n1cnc(-c2cccc(Cl)c2)n1 |
| 1000 to 10000 | C[S+]([O-])/C=C\n1cnc(-c2cccc(Cl)c2)n1 (stereo unspecified) |
| ≤ 1000 | CC(C)Nc1cc(-c2ncn(/C=C\C(=O)OC(C)C)n2)cc(Cl)n1 |
| ≤ 1000 | COc1cc(-c2ncn(/C=C\C(=O)OC3CNC3)n2)cc(C(F)(F)F)c1 |
| ≤ 1000 | O=C(/C=C\n1cnc(-c2cccc(Cl)c2)n1)OC1CCCC1 |
| ≤ 1000 | CC(C)OC(=O)/C=C\n1cnc(-c2cc(Cl)cc(OC(C)C)c2)n1 |
| ≤ 1000 | COc1cc(-c2ncn(/C=C\C(=O)OC(C)C)n2)cc(Cl)n1 |
| ≥ 10000 | CC(C)(C)OC(=O)/C=C/n1cnc(-c2cccc(Cl)c2)n1 |
| ≤ 1000 | O=C(/C=C\n1cnc(-c2cccc(Cl)c2)n1)OC1CCOC1 (stereo unspecified) |
| ≥ 10000 | O=C(/C=C\c1nnc(-c2cccc(Cl)c2)[nH]1)Nc1ccccc1 |
| ≤ 1000 | CC(C)OC(=O)/C=C\n1cnc(-c2cc(C#N)cc(OC(C)C)c2)n1 |
| ≤ 1000 | O=C(/C=C\n1cnc(-c2cccc(Cl)c2)n1)OC1CCC1 |
| ≤ 1000 | O=C(/C=C\n1cnc(-c2cccc(Cl)c2)n1)OC1CCOCC1 |
| 1000 to 10000 | CC(C)(C)OC(=O)/C=C\n1cnc(-c2cccc(Cl)c2)n1 |
| ≤ 1000 | CC(C)OC(=O)/C=C\c1n[nH]c(-c2cccc(Cl)c2)n1 |
| 1000 to 10000 | CC(C)OC(=O)/C=C\n1cnc(-c2cc(Cl)cc(Oc3ccc(Cl)cc3)c2)n1 |
| ≤ 1000 | CC(C)OC(=O)/C=C\n1cnc(-c2cc(Cl)ccc2N)n1 |
| 1000 to 10000 | CC(C)OC(=O)/C=C\Cn1cnc(-c2cccc(Cl)c2)n1 |
| ≤ 1000 | COc1ccc(Cl)cc1-c1ncn(/C=C\C(=O)OC(C)C)n1 |

| IC50 [nM] | Structure (SMILES) |
| --- | --- |
| 1000 to 10000 | CC(C)OC(=O)/C=C\n1cnc(-c2csc(Br)n2)n1 |
| ≥ 10000 | O=C(/C=C/n1cnc(-c2cccc(Cl)c2)n1)Nc1cccc(Cl)c1 |
| 1000 to 10000 | CC(C)OC(=O)/C=C\c1nnc(-c2cccc(F)c2)[nH]1 |
| ≤ 1000 | CC(C)OC(=O)/C=C\n1cnc(-c2cc(Cl)nc(Cl)c2)n1 |
| 1000 to 10000 | COc1ccc(-c2ncn(/C=C\C(=O)OC(C)C)n2)cc1Cl |
| ≤ 1000 | COc1cc(OC)cc(-c2ncn(/C=C\C(=O)OC(C)C)n2)c1 |
| ≥ 10000 | CC(C)(C)OC(=O)Nc1ccc(NC(=O)/C=C/n2cnc(-c3cccc(Cl)c3)n2)cc1 |
| ≤ 1000 | CC(C)OC(=O)/C=C\n1cnc(-c2cc(OCCN(C)C)cc(C(F)(F)F)c2)n1 |
| ≤ 1000 | CC(C)Oc1cc(-c2ncn(/C=C\C(=O)OCc3ccccn3)n2)cc(C(F)(F)F)n1 |
| ≤ 1000 | O=C(/C=C\n1cnc(-c2cccc(Cl)c2)n1)OC1CNC1 |
| 1000 to 10000 | CC(C)OC(=O)/C=C\n1cnc(-c2csc(Cl)n2)n1 |
| ≤ 1000 | CC(C)OC(=O)/C=C\n1cnc(-c2cccc(Cl)c2)n1 |
| ≤ 1000 | CC(C)OC(=O)/C=C\n1cnc(-c2cc(OCCN3CCCC3)cc(C(F)(F)F)c2)n1 |
| 1000 to 10000 | CC(C)OC(=O)/C=C/Cn1cnc(-c2cccc(Cl)c2)n1 |
| ≤ 1000 | O=C(/C=C\n1cnc(-c2cccc(Cl)c2)n1)OC1CCCCC1 |
| 1000 to 10000 | CCOC(=O)/C=C\n1cnc(-c2cc(F)cc(F)c2)n1 |
| ≥ 10000 | CC(C)OC(=O)/C=C\n1cnc(-c2ccc(-c3ccccc3)c(F)c2)n1 |
| 1000 to 10000 | O=C(/C=C\n1cnc(-c2cccc(Cl)c2)n1)OCC1CCCN1 (stereo unspecified) |
| ≥ 10000 | CCOC(=O)/C=C/n1cnc(-c2cccc(Cl)c2)n1 |
| ≥ 10000 | CC(C)OC(=O)/C=C/n1cnc(-c2cccc(Cl)c2)n1 |
| 1000 to 10000 | CC(C)OC(=O)/C=C\n1cnc(-c2cc(O/C=C/C(=O)OC(C)C)cc(C(F)(F)F)c2)n1 |
| ≥ 10000 | CN(C(=O)/C=C\c1nnc(-c2cccc(Cl)c2)[nH]1)c1ccccc1 |
| ≤ 1000 | O=C(/C=C\n1cnc(-c2cccc(Cl)c2)n1)OCc1ccccn1 |

| Structure (SMILES) | IC50 [nM] |
| --- | --- |
| N#C/C=C\n1cnc(-c2cccc(Cl)c2)n1 | ≤ 1000 |
| COc1cc(-c2ncn(/C=C\C(=O)OC(C)C)n2)cc(C(F)(F)F)c1 | ≤ 1000 |
| CC(C)OC(=O)/C=C\n1cnc(-c2csc(Cl)c2)n1 | ≤ 1000 |
| CS(=O)(=O)/C=C\n1cnc(-c2cccc(Cl)c2)n1 | ≤ 1000 |
| N#C/C=C/n1cnc(-c2cccc(Cl)c2)n1 | 1000 to 10000 |
| CC(C)Oc1cc(-c2ncn(/C=C\C#N)n2)cc(C(F)(F)F)c1 | ≤ 1000 |
| O=C(/C=C\n1cnc(-c2cccc(Cl)c2)n1)OCc1cnc[nH]1 | 1000 to 10000 |
| CCOC(=O)/C=C\n1cnc(-c2cc(Cl)cc(Cl)c2)n1 | ≤ 1000 |

molecular target: T1, Exportin-1; experiment: Inhibition of Crm1 in human H929 cells assessed as decrease in nuclear export of topoisomerase-2 by measuring caspase-3 levels at 0.1 to 10 uM preincubated for 16 hrs followed by addition of topoisomerase-2 inhibitor doxorubicin measured after 4 hrs by anti-caspase-3 assay; format: cell-based; conditions: not given

| inhibition | Structure (SMILES) |
| --- | --- |
| Active | CC(C)OC(=O)/C=C\n1cnc(-c2cccc(Cl)c2)n1 |

system: not listed separately; experiment: Antitumor activity against 350 mm'3 human HCT116 cells xenografted in mouse assessed as tumor growth inhibition at 30 mg/kg, iv qd administered for 2 days measured after day 24 relative to control; format: functional; conditions: HCT-116, iv, read-out: TGI

| Structure (SMILES) | inhibition in vivo at 30 mg/kg [%] |
| --- | --- |
| CCc1c2c(nc3ccc(OC(=O)N4CCC(N5CCCCC5)CC4)cc13)-c1cc3c(c(=O)n1C2)COC(=O)[C@]3(O)CC [IRINOTECAN] | 78 |
